These results are taken from paper PMC4994268, “4-aroylpiperidines and 4-(α-hydroxyphenyl)piperidines as selective sigma-1 receptor ligands: synthesis, preliminary pharmacological evaluation and computational studies” (Chemistry Central Journal, 2016).

In general, melting point refers to the temperature, or range, at which the solid turns liquid. A word on the Ki: it is a measure of affinity in units of concentration, obtained from inhibition or displacement.

Series [1] relates to σ1 receptor. Briefly: Sigma receptor binding, σ1 sites, [3H](+)-pentazocine competition in rat liver membrane homogenates. The conditions noted are these: ratio of Ki σ2 to Ki σ1. As for the experimental part: (§1) These experiments were performed as described by Jinbin et al. with some modification. Different concentrations of test samples were achieved by diluting stock solutions with a solution containing 50 mM Tris–HCl, 150 mM NaCl and 100 mM EDTA at pH 7.4. Rat liver membrane homogenates (~300 μg protein) were diluted with 50 mM Tris–HCl buffer, pH 8.0 and incubated in a total volume of 150 μL with the radioligand at 25 °C in 96 well plates. The incubation time was 60 min for test compounds and 120 min for [^3H] DTG and [^3H] (+)-pentazocine.
(§2) It is worth mentioning that, this was done one at a time. The final concentration of the radioligand in each assay was ~1 nM for [^3H] test compounds and ~5 nM for [^3H]
(§3) The reaction was started by adding 0.2 mL of the membrane preparation to the 50 mM Tris–HCl (pH 8.0) buffer containing ^3H-labeled ligand with a final concentration of 5 nM and cold ligand ranging from 0.01 to 0.1 mM in a final volume of 1.0 mL. Incubations were carried out at […] in the binding study with [^3H] […] DTG. Inhibitor concentrations ranging from 0.1 nM to 10 μM were added to acquire the inhibition curves. After the reaction was completed, the samples were harvested, washed three times, and the bound radioactivity counted and analyzed.

Series [2] addresses T1, σ1 receptor (Rattus norvegicus, UniProt Q9R0C9).
T1 construct: Rat liver membrane homogenates (~300 μg protein) were diluted with 50 mM Tris–HCl buffer; from tissue; host or cells: rat liver membrane homogenates
The series is described as above. The conditions noted are these: for Ki: HCl salts tested, rat liver membrane homogenates. As for the experimental part:
as §1, §2, §3

A further series concerns the target T2, σ2 receptor (Rattus norvegicus, UniProt Q5U3Y7).
T2 construct: Rat liver membrane homogenates (~300 μg protein) were diluted with 50 mM Tris–HCl buffer; from tissue; host or cells: rat liver membrane homogenates
T2 sequence (Q5U3Y7 1-176): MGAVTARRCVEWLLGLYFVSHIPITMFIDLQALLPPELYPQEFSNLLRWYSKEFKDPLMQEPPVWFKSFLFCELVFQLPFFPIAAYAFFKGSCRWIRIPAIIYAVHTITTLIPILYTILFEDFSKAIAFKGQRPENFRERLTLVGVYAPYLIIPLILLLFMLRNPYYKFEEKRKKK
In words: Sigma receptor binding, σ2 sites, [3H]DTG competition with σ1 sites masked by (+)-pentazocine, rat liver membrane homogenates. The conditions noted are these: HCl salts tested. As for the experimental part:
as §1
It is worth mentioning that, this was done one at a time. The final concentration of the radioligand in each assay was ~1 nM for [^3H] test compounds and ~5 nM for [^3H] […]

Series [3] deals with σ1 receptor. The conditions noted are these: reference ligands in Table 1; cited from earlier work.

Structures are written as SMILES. Counter-ions that a name gives are not always drawn.

T1 sequence (Q9R0C9 whole entry): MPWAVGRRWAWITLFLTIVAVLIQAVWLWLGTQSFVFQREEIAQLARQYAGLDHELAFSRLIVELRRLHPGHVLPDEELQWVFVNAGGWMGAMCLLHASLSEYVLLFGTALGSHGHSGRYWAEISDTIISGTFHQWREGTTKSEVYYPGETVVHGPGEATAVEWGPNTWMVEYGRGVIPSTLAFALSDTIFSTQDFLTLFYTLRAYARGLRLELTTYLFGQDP

`O=C(c1ccc(F)cc1)C1CCN(Cc2ccccc2[N+](=O)[O-])CC1` (as salt: HCl) [Compound 7d, 4-(4-fluorobenzoyl)-1-[(2-nitrophenyl)methyl]piperidine]: the melting point fell in the range of 95 to 97 °C.
The same measure, in the same setting: as for `Cc1ccc(CN2CCC(C(=O)c3ccc(F)cc3)CC2)cc1` (as salt: HCl) [Compound 7f, 4-(4-fluorobenzoyl)-1-[(4-methylphenyl)methyl]piperidine], the figure is 108 to 110 °C.
In the case of `O=C(c1ccc(F)cc1)C1CCN(Cc2ccc(F)cc2)CC1` [Compound 7a, 4-(4-fluorobenzoyl)-1-[(4-fluorophenyl)methyl]piperidine], the “Selectivity ratio (Ki σ2/σ1)” value in the series on σ1 receptor [1] was found to be 75. Further, the Ki at σ1 receptor [2] was found to be 2.96 ± 0.5 nM; at σ2 receptor it was 222 ± 8 nM.
For `O=C(c1ccc(F)cc1)C1CCN(Cc2ccc(Cl)c(Cl)c2)CC1` [Compound 7b, 1-[(3,4-dichlorophenyl)methyl]-4-(4-fluorobenzoyl)piperidine], the Ki on σ1 receptor [2] was over 434 nM; on σ2 receptor it was over 854 nM.
Consider `O=C(c1ccc(F)cc1)C1CCN(Cc2ccc(Cl)cc2)CC1` [Compound 7c, 1-[(4-chlorophenyl)methyl]-4-(4-fluorobenzoyl)piperidine], for which the “Selectivity ratio (Ki σ2/σ1)” value with σ1 receptor [1] is 93. In addition, the Ki worked out at 5.98 ± 0.41 nM at σ1 receptor [2] and 554 ± 34.2 nM at σ2 receptor.
As to `O=C(c1ccc(F)cc1)C1CCN(Cc2ccccc2[N+](=O)[O-])CC1` [Compound 7d, 4-(4-fluorobenzoyl)-1-[(2-nitrophenyl)methyl]piperidine], the Ki was over 434 nM at σ1 receptor [2] and over 854 nM on σ2 receptor.
In the case of `O=C(c1ccc(F)cc1)C1CCN(Cc2ccc(Br)cc2)CC1` [Compound 7e, 1-[(4-bromophenyl)methyl]-4-(4-fluorobenzoyl)piperidine], in the series with σ1 receptor [1], the “Selectivity ratio (Ki σ2/σ1)” value is reported as over 610. Further, the Ki was 1.4 ± 0.5 nM on σ1 receptor [2] and over 854 nM at σ2 receptor.
In the same order, the values of `Cc1ccc(CN2CCC(C(=O)c3ccc(F)cc3)CC2)cc1` [Compound 7f, 4-(4-fluorobenzoyl)-1-[(4-methylphenyl)methyl]piperidine] are 13, 11.6 ± 0.26 nM and 151 ± 7.79 nM.
For `OC(c1ccc(F)cc1)C1CCN(Cc2ccc(F)cc2)CC1` (stereo not drawn) [Compound 8a, (4-fluorophenyl)({1-[(4-fluorophenyl)methyl]piperidin-4-yl})methanol], the “Selectivity ratio (Ki σ2/σ1)” value in the series with σ1 receptor [1] is over 606. The Ki at σ1 receptor [2] was 1.41 ± 0.22 nM; on σ2 receptor it was over 854 nM. Also, at σ1 receptor [2] (alcohol 8 versus ketone 7), the “increase in σ1 receptor affinity on reduction of the carbonyl compound to the corresponding alcohol” value was “twofold”.
Regarding `OC(c1ccc(F)cc1)C1CCN(Cc2ccc(Cl)c(Cl)c2)CC1` (stereo not drawn) [Compound 8b, {1-[(3,4-dichlorophenyl)methyl]piperidin-4-yl}(4-fluorophenyl)methanol], the inhibition constant (Ki) is over 434 nM on σ1 receptor [2] and over 854 nM at σ2 receptor.
As to `OC(c1ccc(F)cc1)C1CCN(Cc2ccc(Cl)cc2)CC1` (stereo not drawn) [Compound 8c, {1-[(4-chlorophenyl)methyl]piperidin-4-yl}(4-fluorophenyl)methanol], in the series with σ1 receptor [1], the “Selectivity ratio (Ki σ2/σ1)” value was over 343. The Ki is 2.49 ± 0.24 nM at σ1 receptor [2] and over 854 nM at σ2 receptor. Moreover, on σ1 receptor [2] (alcohol 8 versus ketone 7), the “increase in σ1 receptor affinity on reduction of the carbonyl compound to the corresponding alcohol” value was “twofold”.
With `O=[N+]([O-])c1ccccc1CN1CCC(C(O)c2ccc(F)cc2)CC1` (stereo not drawn) [Compound 8d, (4-fluorophenyl)({1-[(2-nitrophenyl)methyl]piperidin-4-yl})methanol], the “Selectivity ratio (Ki σ2/σ1)” value in the series on σ1 receptor [1] stood at 2. For the same molecule, the Ki is 527 ± 69 nM on σ1 receptor [2] and over 854 nM at σ2 receptor.
On to `OC(c1ccc(F)cc1)C1CCN(Cc2ccc(Br)cc2)CC1` (stereo not drawn) [Compound 8e, {1-[(4-bromophenyl)methyl]piperidin-4-yl}(4-fluorophenyl)methanol], for which the “Selectivity ratio (Ki σ2/σ1)” value in the series with σ1 receptor [1] is recorded as over 164. For the same molecule, the figures for the Ki on σ1 receptor [2] and at σ2 receptor were 5.22 ± 0.3 nM and over 854 nM, respectively. The “decrease in σ1 binding affinity on reduction of the carbonyl to the corresponding alcohol” value at σ1 receptor [2] (alcohol 8 versus ketone 7) was “fivefold”.
For `Cc1ccc(CN2CCC(C(O)c3ccc(F)cc3)CC2)cc1` (stereo not drawn) [Compound 8f, (4-fluorophenyl)({1-[(4-methylphenyl)methyl]piperidin-4-yl})methanol], the “Selectivity ratio (Ki σ2/σ1)” value in the series with σ1 receptor [1] is on record as over 589. The Ki on σ1 receptor [2] was 1.45 ± 0.4 nM; at σ2 receptor it was over 854 nM. At σ1 receptor [2] (alcohol 8 versus ketone 7), the “increase in σ1 receptor affinity on reduction of the carbonyl compound to the corresponding alcohol” value is recorded as 11 fold.
Take `O=[N+]([O-])c1ccccc1CN1CCC(C(NCc2cccc(Br)c2)c2ccc(F)cc2)CC1` (stereo not drawn) [Compound 9d, [(3-bromophenyl)methyl][(4-fluorophenyl)({1-[(2-nitrophenyl)methyl]piperidin-4-yl})methyl]amine]: the values for the Ki at σ1 receptor [2] and on σ2 receptor were over 434 nM and over 854 nM, respectively.
As for `Fc1ccc(C(NCc2cccc(Br)c2)C2CCN(Cc3ccc(Br)cc3)CC2)cc1` (stereo not drawn) [Compound 9e, [(3-bromophenyl)methyl]({1-[(4-bromophenyl)methyl]piperidin-4-yl}(4-fluorophenyl)methyl)amine], in the series on σ1 receptor [1], the “Selectivity ratio (Ki σ2/σ1)” value is over 289. The Ki at σ1 receptor [2] was 2.95 ± 0.57 nM; on σ2 receptor, over 854 nM.
`c1ccc(CN2CCC3(CCc4ccccc4S3)CC2)cc1` [Spipethiane, 1′-Benzyl-3,4-dihydrospiro[2H-1-benzothiopyran-2,4′-piperidine]]: the inhibition constant (Ki) on σ1 receptor [3] is 0.5 nM.
